Measurements published in patent publication US9597407B2, “Targeted antimicrobial moieties” (C3 Jian, Inc., priority 2009, dated 2017).
Entries after “also recorded” stand apart in the source; their conditions may differ.

Tests used:
microorganisms = assay: Morphology, biofilm and growth disruption by peptides (Table 5); type: cell-based; set-up: key: A: Peptide aggregates; B: Less hyphal formation; Clumps; Diffuse clumps and small polyps; F: Diffuse growth; H: Thin; I: Growth inhibition; Microcolony formation; Rippled; Small polyps; Thick; W: Halo formation on top, microlonies on bottom
Excerpt: In certain embodiments peptides that induce alterations in phenotype or other biological activities can also be used as antimicrobial effector moieties.

bacteria = assay: Binding of targeting peptides to microorganisms (Table 3); conditions: preferably 1x PBS; for Target(s) (microorganism bound by the targeting peptide) / Target(s) (microorganisms bound by the targeting peptide): peptide binding in aqueous buffers that varied depending on peptide solubility
[1] = microorganism bound by the targeting peptide, binding in aqueous buffers chosen by peptide solubility
[2] = microorganism the targeting peptide binds, binding in aqueous buffers that varied with peptide solubility

PF-638 (chain 1 TFILPK; chain 2 TFILPK; Peptide with targeting and/or antimicrobial activity)
Organism, effect (morphology, biofilm and growth disruption) (microorganisms; E. faecalis): E. faecalis (H)
Organism, effect (morphology, biofilm and growth disruption) (microorganisms; MRSA): MRSA (M)
Organism, effect (morphology, biofilm and growth disruption) (microorganisms; S. epidermidis): S. epidermidis (R)
Organism, effect (morphology, biofilm and growth disruption) (microorganisms; S. pneumoniae): S. pneumoniae (I)
Target(s) (microorganism bound by the targeting peptide) (bacteria): S. epidermidis and C. albicans and MRSA and C. jeikeium

PF-405 (LVRIEVDDLEEWYERNFI; Peptide with targeting and/or antimicrobial activity)
Organism, effect (microorganisms; MRSA): MRSA (M)
Target(s) (microorganisms bound by the targeting peptide) (bacteria): S. epidermidis; also recorded: E. coli; also recorded: E. faecalis

PF-681 (chain 1 TALTTVGVSGARLITYCVGVEDI; chain 2 TALTTVGVSGARLITYCVGVEDI; Peptide with targeting and/or antimicrobial activity)
Organism, effect (morphology, biofilm and growth disruption) (microorganisms; C. jeikeium): C. jeikeium (R)
Organism, effect (morphology, biofilm and growth disruption) (microorganisms; E. faecalis): E. faecalis (R)
Organism, effect (morphology, biofilm and growth disruption) (microorganisms; MRSA): MRSA (M)
Organism, effect (morphology, biofilm and growth disruption) (microorganisms; S. epidermidis): S. epidermidis (M)
Organism, effect (morphology, biofilm and growth disruption) (microorganisms; S. pneumoniae): S. pneumoniae (M)
Target(s) (microorganism bound by the targeting peptide) (bacteria): M. smegmatis

NTNDLLQAFELMGLGMAGVFIVLGILYIVAELLIKIFPVNN [PF-C194]
Organism, effect (morphology, biofilm and growth disruption) (microorganisms; F. nucleatum): F. nucleatum (T)
Organism, effect (morphology, biofilm and growth disruption) (microorganisms; P. gingivalis): P. gingivalis (T)
Organism, effect (morphology, biofilm and growth disruption) (microorganisms; S. mutans): S. mutans (F)
Target(s) (microorganism bound by the targeting peptide) (bacteria): A. naeslundii; also recorded: F. nucleatum; also recorded: P. gingivalis; also recorded: S. mutans; also recorded: T. denticola

PF-656 (chain 1 RGMFVPFHDVDCVQ; chain 2 RGMFVPFHDVDCVQ; Peptide with targeting and/or antimicrobial activity)
Organism, effect (morphology, biofilm and growth disruption) (microorganisms; MRSA): MRSA (R)
Target(s) (microorganism bound by the targeting peptide) (bacteria): Mycobacteria spp

PF-313 (YITSHKNARAIIKKFERDEILEEVITHYLNRK; Peptide with targeting and/or antimicrobial activity)
Organism, effect (microorganisms; S. epidermidis): S. epidermidis (C)
Target(s) (bacteria; [1]): S. epidermidis; also recorded: C. difficile

PF-180 (SGLGDLGFSSEAK; Peptide with targeting and/or antimicrobial activity)
Organism, effect (microorganisms; S. epidermidis): S. epidermidis (C)
Target(s) (bacteria; [1]): S. epidermidis and M. luteus and P. aeruginosa and C. albicans and MRSA and E. faecalis and C. jejuni and M. smegmatis

PF-234 (RTPYILRS; Peptide with targeting and/or antimicrobial activity)
Organism, effect (microorganisms; M. luteus): M. luteus (T)
Target(s) (bacteria; [1]): S. epidermidis; also recorded: M. luteus

PDAPRTCYHKPILAALSRIVVTDR [PF-524]
Organism, effect (morphology, biofilm and growth disruption) (microorganisms; E. coli): E. coli (M)
Organism, effect (morphology, biofilm and growth disruption) (microorganisms; E. faecalis): E. faecalis (C)
Organism, effect (morphology, biofilm and growth disruption) (microorganisms; MRSA): MRSA (C)
Organism, effect (morphology, biofilm and growth disruption) (microorganisms; S. pneumoniae): S. pneumoniae (M)
Target(s) (microorganisms bound by the targeting peptide) (bacteria): S. epidermidis and E. coli and P. aeruginosa and C. albicans and MRSA and S. pneumoniae and E. faecalis and C. jeikeium

PF-002 (chain 1 NDDAQ; chain 2 NDDAQ; Peptide with targeting and/or antimicrobial activity)
Organism, effect (microorganisms; B. subtilis): B. subtilis (R)
Organism, effect (microorganisms; S. pneumoniae): S. pneumoniae (H)
Target(s) (bacteria; [2]): S. epidermidis; also recorded: P. mirabilis; also recorded: C. albicans; also recorded: C. jeikeium; also recorded: C. jejuni

PF-397 (VEDLMEDLNA; Peptide with targeting and/or antimicrobial activity)
Organism, effect (microorganisms; S. epidermidis): S. epidermidis (C)
Target(s) (microorganisms bound by the targeting peptide) (bacteria): S. epidermidis and MRSA and S. pneumoniae and E. faecalis and C. jejuni

PF-692 (chain 1 GVAREDPLEPDPLAPIIDDSR; chain 2 GVAREDPLEPDPLAPIIDDSR; Peptide with targeting and/or antimicrobial activity)
Organism, effect (morphology, biofilm and growth disruption) (microorganisms; MRSA): MRSA (R)
Target(s) (microorganism bound by the targeting peptide) (bacteria): Mycobacteria spp

LIQKGLNQTFIVVIRLNNFIKKS [PF-013]
Organism, effect (microorganisms; C. jeikeium): C. jeikeium (D)
Organism, effect (microorganisms; M. luteus): M. luteus (D)
Organism, effect (microorganisms; MRSA): MRSA (R)
Organism, effect (microorganisms; S. epidermidis): S. epidermidis (C)
Target(s) (bacteria; [2]): M. luteus and P. mirabilis and E. coli and P. aeruginosa and MRSA and S. pneumoniae and C. jeikeium and C. jejuni

PF-426 (MLQKYTQMISVTKCIITKNKKTQENVDAYN; Peptide with targeting and/or antimicrobial activity)
Organism, effect (morphology, biofilm and growth disruption) (microorganisms; C. albicans): C. albicans (A)
Organism, effect (morphology, biofilm and growth disruption) (microorganisms; C. jejuni): C. jejuni (D)
Organism, effect (morphology, biofilm and growth disruption) (microorganisms; E. coli): E. coli (C)
Organism, effect (morphology, biofilm and growth disruption) (microorganisms; E. faecalis): E. faecalis (D)
Organism, effect (morphology, biofilm and growth disruption) (microorganisms; MRSA): MRSA (D)
Organism, effect (morphology, biofilm and growth disruption) (microorganisms; S. epidermidis): S. epidermidis (D)
Organism, effect (morphology, biofilm and growth disruption) (microorganisms; S. pneumoniae): S. pneumoniae (D)
Target(s) (microorganisms bound by the targeting peptide) (bacteria): S. epidermidis and E. coli and P. aeruginosa and C. albicans and MRSA and S. pneumoniae and E. faecalis and C. jeikeium

PF-C291 (HPFLTGTGCPLFLIFRLFFVKAYFSFTVF; Peptide with targeting and/or antimicrobial activity)
Organism, effect (morphology, biofilm and growth disruption) (microorganisms; F. nucleatum): F. nucleatum (T)
Organism, effect (morphology, biofilm and growth disruption) (microorganisms; S. mutans): S. mutans (F)
Target(s) (microorganism bound by the targeting peptide) (bacteria): A. naeslundii; also recorded: F. nucleatum; also recorded: P. gingivalis; also recorded: S. mutans

PF-350 (LAVILRAIVY; Peptide with targeting and/or antimicrobial activity)
Organism, effect (microorganisms; E. coli): E. coli (C)
Organism, effect (microorganisms; MRSA): MRSA (C)
Organism, effect (microorganisms; S. epidermidis): S. epidermidis (C)
Target(s) (bacteria; [1]): S. epidermidis; also recorded: E. coli; also recorded: E. faecalis; also recorded: C. jeikeium; also recorded: C. jejuni

PF-215 (ELKITNYNVNTVLYRYYKWGNDLCE; Peptide with targeting and/or antimicrobial activity)
Organism, effect (microorganisms; M. luteus): M. luteus (T)
Target(s) (bacteria; [1]): S. epidermidis; also recorded: M. luteus; also recorded: P. aeruginosa; also recorded: A. baumannii

PF-639 (chain 1 QATQIKSWIDRLLVSED; chain 2 QATQIKSWIDRLLVSED; Peptide with targeting and/or antimicrobial activity)
Organism, effect (morphology, biofilm and growth disruption) (microorganisms; C. albicans): C. albicans (B)
Organism, effect (morphology, biofilm and growth disruption) (microorganisms; E. faecalis): E. faecalis (H)
Organism, effect (morphology, biofilm and growth disruption) (microorganisms; MRSA): MRSA (R)
Organism, effect (morphology, biofilm and growth disruption) (microorganisms; S. pneumoniae): S. pneumoniae (I)
Target(s) (microorganism bound by the targeting peptide) (bacteria): S. pneumoniae; also recorded: C. jeikeium

PF-294 (DFLVNFLWFKGELNWGKKRYK; Peptide with targeting and/or antimicrobial activity)
Organism, effect (microorganisms; S. epidermidis): S. epidermidis (C)
Target(s) (bacteria; [1]): S. epidermidis; also recorded: C. difficile
